Consider one compound from US8124111B2, “Immunomodulation by altering sphingosine 1-phosphate lyase (SPL) activity” (Children's Hospital & Research Center at Oakland, priority 2005, dated 2012).

For this assay, the target named is T1, SPL (Homo sapiens, UniProt O95470).
T1 sequence (O95470 1-568): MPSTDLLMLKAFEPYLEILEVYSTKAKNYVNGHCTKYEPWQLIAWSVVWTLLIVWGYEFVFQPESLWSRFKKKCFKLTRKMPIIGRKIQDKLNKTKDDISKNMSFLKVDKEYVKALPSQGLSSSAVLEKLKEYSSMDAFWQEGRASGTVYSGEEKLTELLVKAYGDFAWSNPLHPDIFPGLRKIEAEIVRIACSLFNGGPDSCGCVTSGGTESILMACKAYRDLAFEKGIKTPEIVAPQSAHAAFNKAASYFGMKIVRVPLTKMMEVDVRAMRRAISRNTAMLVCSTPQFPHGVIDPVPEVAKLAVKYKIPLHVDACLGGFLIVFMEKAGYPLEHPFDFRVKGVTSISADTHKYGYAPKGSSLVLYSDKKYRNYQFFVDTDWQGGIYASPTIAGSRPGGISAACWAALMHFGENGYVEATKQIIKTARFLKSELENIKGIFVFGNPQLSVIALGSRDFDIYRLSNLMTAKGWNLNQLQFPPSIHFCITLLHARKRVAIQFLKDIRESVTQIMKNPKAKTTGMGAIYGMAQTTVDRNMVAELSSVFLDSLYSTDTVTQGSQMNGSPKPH
As to the kind of experiment: Inhibition of SPL activity in vitro (whole cell extracts of HEK293 cells with human SPL adenoviral construct). The assay is classed as biochemical. Also noted: expressed in transfected cells; host or cells: HEK293 infected with adenoviral vector. On the procedure: Various concentrations of FTY720 or its phosphorylated derivative (FTY720P) were incubated for 30 minutes on ice with whole cell extracts containing high SPL activity by virtue of a human SPL adenoviral expression construct. SPL activity was determined. (A) FTY720; (B) FTY720-P.
SPL enzyme assay: Tissues were homogenized by sonication in 9 volumes of ice-cold homogenization buffer (5 mM MOPS pH 7.5, 1 mM DTT, 1 mM EDTA, 0.25 M sucrose, and 5 micrograms/ml each chymostatin, leupeptin, pepstatin A and antipain). SPL assays were conducted using 50 micrograms protein per assay and radioactive [4,5 ^3H]DHS1P substrate, as described previously (Reiss et al., (2004) J Biol Chem 279, 1281-1290). For in vitro FTY720 and FTY720-P experiments, drug was incubated with whole cell extracts prepared from HEK293 cells infected with an adenoviral vector expressing human SPL. These extracts contained approximately 200 picomoles/mg protein/minute SPL activity. Drug was incubated with extracts for 30 minutes, followed by addition of extracts to reaction buffer and substrate to initiate the reaction.
Although treatment with FTY720 was associated with low (nanomolar) circulating drug levels, it was possible that local concentrations within cells and subcellular compartments may have been considerably higher, since FTY720 has been reported to be actively transported into cells by the actions of drug transporters that recognize long chain bases (Honig et al., (2003) J Clin Invest 111, 627-637).

Where [1] appears, read: 30 minutes incubation with extracts.

Consider `CCCCCCCCc1ccc(CCC(N)(CO)CO)cc1` [FTY720], for which the “dose dependence of SPL inhibition in vitro” value is recorded as “dose-dependent”. Under setting [1], the “concentration of maximal effect on SPL activity in vitro” value amounted to 30 µM and the “lowest concentration with effect on SPL activity in vitro” value worked out at 300 nM.
